Among the test systems are A498; HCT-15; HOP-92; IGROV-1; K562; NCI-H23; NCI-H460; NCI-H522; NCI/ADR-RES; OVCAR-8; PC-3; RPMI-8226; SK-MEL-28; SK-MEL-5; T47D; UO-31; HCC 2998; HL-60; SR.
Common to all, as to test: NCI anticancer screen, dose series, 48 h

Each structure is given as a SMILES string.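 Interpolation was linear, between the two tested concentrations surrounding the appropriate level; five concentrations were tested over 48 hours in 96-well plates. Here, GI50 denotes the concentration required for 50% inhibition of growth.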 Active and inactive are the calls of the source. Rule as the data show it: active = GI50 up to about 1.1 µM and inactive = higher.

For `O=C(CON1C(=O)c2ccccc2C1=O)c1ccccc1`, the GI50 in the assay on A498 is > 100 µM (inactive); with HCT-15, over 100 µM; in the assay on HOP-92 it was 58.6 µM (inactive); in the assay with IGROV-1, > 100 µM (inactive); in the assay with K562 it was 45.9 µM (inactive); with NCI-H23, > 100 µM (inactive). For the same compound, the GI50 in the assay on NCI-H460 is > 100 µM (inactive); in the assay on NCI-H522, 17.7 µM (inactive); in the assay with NCI/ADR-RES, > 100 µM (inactive); with OVCAR-8 it was > 100 µM (inactive); in the assay on PC-3, > 100 µM (inactive); in the assay with RPMI-8226, 18.6 µM (inactive). For the same compound, the GI50 is > 100 µM (inactive) in the assay on SK-MEL-28, > 100 µM (inactive) in the assay on SK-MEL-5, 22.3 µM (inactive) with T47D and 21.3 µM (inactive) in the assay with UO-31.
For `C[C@@H](CO)C1=CC(C#C[Si](C)(C)C)N(C(=O)Oc2ccccc2)c2ccccc21` (some centres not stated), the GI50 is 15.2 µM (inactive) in the assay with HCC 2998; 6.37 µM with HCT-15; 17.1 µM (inactive) with HL-60; 11.7 µM (inactive) with HOP-92; 17.1 µM (inactive) with IGROV-1; 1.49 µM (inactive) in the assay with K562. In addition, the GI50 in the assay with NCI-H23 is 6.75 µM (inactive); with NCI-H460, 18.1 µM (inactive); with NCI-H522 it was 16.8 µM (inactive); in the assay on NCI/ADR-RES it was 11.8 µM (inactive); in the assay with OVCAR-8, 17.5 µM (inactive); in the assay with PC-3 it was 19.6 µM (inactive). Further, the GI50 was 24.9 µM (inactive) in the assay on RPMI-8226; 18.2 µM (inactive) with SK-MEL-28; 16 µM (inactive) with SK-MEL-5; 5.65 µM (inactive) in the assay with SR; 18.2 µM (inactive) in the assay on T47D; 14.7 µM (inactive) in the assay on UO-31.
For `CC(=O)N1c2ccccc2[C@H]2CCc3c([nH]c4ccccc34)[C@H]21`, the GI50 in the assay with A498 is 17.5 µM (inactive); with HCT-15 it was 11.3 µM; with HL-60 it was 12.4 µM (inactive); in the assay on HOP-92, 14.4 µM (inactive); in the assay with IGROV-1 it was 4.33 µM (inactive); in the assay with K562 it was 8.57 µM (inactive). Further, the GI50 in the assay with NCI-H23 was 9.53 µM (inactive); in the assay on NCI-H460, 8.39 µM (inactive); with NCI-H522, 20.4 µM (inactive); in the assay with NCI/ADR-RES, 23.3 µM (inactive); with OVCAR-8, 25.3 µM (inactive); with PC-3, 23 µM (inactive). The GI50 in the assay on RPMI-8226 is 6.27 µM (inactive); with SK-MEL-28 it was 14.7 µM (inactive); in the assay on SK-MEL-5 it was 12.9 µM (inactive); in the assay with T47D, 18.7 µM (inactive); in the assay on UO-31, 6.31 µM (inactive).
`CC12CC(c3ccccc3O1)C(C(=O)Nc1ccc(F)cc1)C(=O)N2` (configuration not stated): the GI50 with A498 was > 100 µM (inactive); with HCC 2998 it was > 100 µM (inactive); in the assay with HCT-15, over 100 µM; in the assay on HL-60, 29.6 µM (inactive); in the assay on IGROV-1, 49.1 µM (inactive); in the assay with K562, 47.9 µM (inactive). Moreover, the GI50 with NCI-H23 is 44.6 µM (inactive); with NCI-H460 it was 89.7 µM (inactive); with NCI-H522, 63.2 µM (inactive); in the assay on NCI/ADR-RES, 47.4 µM (inactive); in the assay on OVCAR-8, 36 µM (inactive); in the assay with PC-3, > 100 µM (inactive). The GI50 is 40.3 µM (inactive) in the assay on RPMI-8226; > 100 µM (inactive) in the assay with SK-MEL-28; 32.5 µM (inactive) in the assay with SK-MEL-5; 73.1 µM (inactive) in the assay with SR; 33.5 µM (inactive) in the assay with T47D; 65.9 µM (inactive) in the assay on UO-31.
Regarding `COc1ccc([N+](=O)[O-])c2c(NCCCN(C)C)ccnc12`, the GI50 was 2.33 µM (inactive) in the assay with A498; 2.84 µM (inactive) in the assay with HCC 2998; 1.85 µM in the assay on HCT-15; 5.14 µM (inactive) with HL-60; 1.78 µM (inactive) in the assay on HOP-92; 1.66 µM (inactive) in the assay on IGROV-1. Further, the GI50 in the assay with K562 is 1.77 µM (inactive); in the assay on NCI-H23, 2.32 µM (inactive); in the assay with NCI-H460 it was 2.34 µM (inactive); with NCI-H522, 1.46 µM (inactive); in the assay on NCI/ADR-RES it was 15.8 µM (inactive); in the assay with OVCAR-8, 10.8 µM (inactive). The GI50 in the assay on PC-3 is 4.32 µM (inactive); with RPMI-8226, 1.65 µM (inactive); in the assay on SK-MEL-28, > 63.4 µM (inactive); with SK-MEL-5, 2.12 µM (inactive); in the assay on T47D, 3.52 µM (inactive); in the assay on UO-31, 4.39 µM (inactive).
Regarding `CCOC(=O)c1ccc(-c2onc(C)c2Br)[nH]1`, the GI50 is 49.9 µM (inactive) in the assay with A498; > 100 µM (inactive) in the assay with HCC 2998; 36.1 µM in the assay on HCT-15; 23 µM (inactive) with HOP-92; 22.7 µM (inactive) in the assay with IGROV-1; 80.2 µM (inactive) in the assay with K562. Moreover, the GI50 with NCI-H23 is 46.8 µM (inactive); in the assay on NCI-H460, > 100 µM (inactive); in the assay with NCI-H522, 51.9 µM (inactive); in the assay with NCI/ADR-RES, 29.7 µM (inactive); with OVCAR-8 it was 37.4 µM (inactive); in the assay with PC-3, 60 µM (inactive). Besides, the GI50 in the assay with RPMI-8226 was 86.7 µM (inactive); in the assay on SK-MEL-28 it was > 100 µM (inactive); in the assay on SK-MEL-5 it was 41.3 µM (inactive); with T47D, 30 µM (inactive); in the assay on UO-31 it was 32.7 µM (inactive).
As to `C[C@H](C(=O)N1C(=O)O[C@@H](c2ccccc2)[C@H]1C)[C@H](c1ccccc1)N(Cc1ccccc1)OC(=O)c1ccccc1`, the GI50 is > 100 µM (inactive) in the assay on A498; 21.6 µM (inactive) in the assay with HCC 2998; 29.6 µM in the assay on HCT-15; 29 µM (inactive) in the assay on HL-60; 24.4 µM (inactive) with HOP-92; 29.2 µM (inactive) in the assay with IGROV-1. Moreover, the GI50 in the assay on K562 is 31.6 µM (inactive); with NCI-H23, 65.3 µM (inactive); in the assay with NCI-H460, 30.4 µM (inactive); in the assay on NCI-H522, 29.1 µM (inactive); in the assay on NCI/ADR-RES, 30.3 µM (inactive); with OVCAR-8 it was 37.5 µM (inactive). Moreover, the GI50 with PC-3 was 53.5 µM (inactive); in the assay with RPMI-8226 it was 21.7 µM (inactive); in the assay on SK-MEL-28 it was > 100 µM (inactive); with SK-MEL-5, 21 µM (inactive); in the assay with T47D it was 15.8 µM (inactive); with UO-31 it was 34.8 µM (inactive).
Regarding `CCc1n[nH]c(=O)n1N=C(c1ccccc1)c1ccccc1`, the GI50 in the assay with A498 was > 100 µM (inactive); in the assay with HCT-15, over 100 µM; in the assay on HL-60, > 100 µM (inactive); in the assay on HOP-92, > 100 µM (inactive); in the assay with IGROV-1, > 100 µM (inactive); in the assay on K562, > 100 µM (inactive). The GI50 in the assay with NCI-H23, in the assay with NCI-H460, in the assay with NCI-H522, with NCI/ADR-RES, with OVCAR-8 and in the assay with PC-3 was > 100 µM (inactive) each time. In addition, the GI50 with RPMI-8226, in the assay on SK-MEL-28, in the assay with SK-MEL-5, in the assay on T47D and with UO-31 was > 100 µM (inactive) each time.
Consider `COc1ccc2oc3c(C)cc4c(OC)nnc(OC)c4c3c2c1`, for which the GI50 in the assay on A498 was 17.4 µM (inactive); with HCC 2998 it was 16.7 µM (inactive); in the assay on HCT-15 it was 7.83 µM; in the assay on HL-60, 13.5 µM (inactive); with HOP-92 it was 10.9 µM (inactive); with K562, 6.87 µM (inactive). Moreover, the GI50 in the assay with NCI-H23 was 17.9 µM (inactive); with NCI-H460, 3.79 µM (inactive); in the assay with NCI-H522, 6.76 µM (inactive); in the assay with NCI/ADR-RES it was 18.4 µM (inactive); with OVCAR-8, 6.65 µM (inactive); in the assay on PC-3 it was 12.8 µM (inactive). Also, the GI50 in the assay with RPMI-8226 is 4.93 µM (inactive); in the assay on SK-MEL-28, 68.2 µM (inactive); in the assay with SK-MEL-5, 6.15 µM (inactive); in the assay with T47D, 29.9 µM (inactive); in the assay with UO-31, 6.93 µM (inactive).
With `CC(O)CCNC(=O)Nc1c(C(F)(F)F)cc(-c2ccccc2)[nH]c1=O` (configuration not stated), the GI50 in the assay on A498 was > 100 µM (inactive); in the assay on HCC 2998, > 100 µM (inactive); in the assay on HCT-15, over 100 µM; in the assay with HL-60, 67.9 µM (inactive); in the assay on HOP-92, > 100 µM (inactive); in the assay with IGROV-1, > 100 µM (inactive). Besides, the GI50 in the assay with K562, in the assay on NCI-H23, in the assay with NCI-H460, in the assay on NCI-H522, in the assay with NCI/ADR-RES and in the assay with OVCAR-8 was > 100 µM (inactive) each time. Moreover, the GI50 with PC-3, in the assay with RPMI-8226, in the assay on SK-MEL-28, in the assay with SK-MEL-5, in the assay with T47D and in the assay on UO-31 was > 100 µM (inactive) each time.
With `O=c1c(C(c2ccco2)c2c(O)oc3ccccc3c2=O)c(O)oc2ccccc12`, the GI50 in the assay on A498 was > 100 µM (inactive); in the assay on HCC 2998, 26.5 µM (inactive); in the assay on HCT-15, 19.1 µM; in the assay on HL-60, 67.5 µM (inactive); in the assay with HOP-92, 25.5 µM (inactive); in the assay with IGROV-1, 17.8 µM (inactive). The GI50 was 38.6 µM (inactive) in the assay on K562; > 100 µM (inactive) with NCI-H23; > 100 µM (inactive) in the assay with NCI-H460; 19.5 µM (inactive) with NCI-H522; 30.5 µM (inactive) in the assay on NCI/ADR-RES; 27.4 µM (inactive) with OVCAR-8. Further, the GI50 is > 100 µM (inactive) with PC-3; 26.1 µM (inactive) in the assay with RPMI-8226; 21.2 µM (inactive) with SK-MEL-28; 40.3 µM (inactive) with SK-MEL-5; 43.3 µM (inactive) with T47D; 25.7 µM (inactive) with UO-31.

The values above are taken from ChEMBL document CHEMBL1201862, “PubChem BioAssay data set” (2004).
